According to article PMC5487681, “Identification of Antifungal H^+-ATPase Inhibitors with Effect on Plasma Membrane Potential” (Antimicrobial Agents and Chemotherapy, 2017):
pIC50: −log10 of the molar value. Residues, ends and D or L forms follow the SMILES beside them.

Experiments:
S. cerevisiae Pma1 = S. cerevisiae Pma1 (Saccharomyces cerevisiae, UniProt P05030); conditions: read-out: IC50 Pma1, ATP hydrolysis assay; cited from earlier work
S. cerevisiae cells = test: Membrane potential and integrity assay, DiBAC4(3)/PI image cytometry; type: cell-based, Saccharomyces cerevisiae; conditions: for PI signal (membrane integrity), in words: compound 14 after 5 min, BM2 within 5 min; for PI signal (membrane integrity), in words / DiBAC4(3) signal (membrane depolarization), in words: compound 17 15 µM, 30 min (Fig. S1); for DiBAC4(3) signal (membrane depolarization), in words: compound 14 after 5 min of exposure
Protocol: Cells were transferred from frozen stocks to 3 ml of YPD medium and grown overnight at 30°C and 150 rpm. The culture was diluted to an OD600 of 0.15 and grown for 3 to 4 h at 30°C and 150 rpm to an OD600 of 0.5 to 0.7. The cells were pelleted by centrifugation at 2,000 × g for 2 min and washed in buffer A (100 mM MOPS and 1 mM KCl adjusted to pH 7.0 with Trizma base). The washing procedure was repeated, and the cells were resuspended in buffer A to an OD600 of 0.2. Fifty microliters of buffer A containing 3.3 μg/ml propidium iodide (PI; catalog number P1304MP; Thermo Fisher Scientific) and 1 μg/ml DiBAC4(3) (catalog number D8189; Sigma-Aldrich) was mixed with 50 μl the S. cerevisiae cell suspension in buffer A and transferred to a 96-well plate with 1 μl of inhibitor in DMSO, and the components were mixed.
Approximately 30 μl sample was transferred to an A2 glass slide (ChemoMetec, Allerod, Denmark), and the slide was incubated at 30°C before the cells were counted on a NucleoCounter NC-3000 cytometer (ChemoMetec). Five thousand cells were counted per experiment with an exposure time of 1,000 ms. A dark field was used as the masking channel to select the yeast cells. The DiBAC4(3) channel (excitation, 530 nm; emission, 675/75 nm) and the PI channel (excitation, 630 nm; emission, 740/60 nm) were used to measure the membrane potential and membrane integrity, respectively. To account for the fluorescent spillover from the PI channel to the DiBAC4(3) channel, 15% compensation was applied. In all experiments, 1.9% compensation was used to compensate for the DiBAC4(3)-to-PI spillover. The results were analyzed using NucleoView software (ChemoMetec). Only cells with a pixel size of 10 to 40 were included in the analysis, thus avoiding analysis of noncell artifacts. Carbonyl cyanide m-chlorophenylhydrazone (CCCP) was used as a positive control for decreased membrane potential, and lysis buffer was used to validate lost membrane integrity.

C. albicans = conditions: read-out: IC50 for C. albicans, previously reported value; cited from earlier work
[1] = 30 min of exposure, 15 μM (Fig. 4C)

Chain of S. cerevisiae Pma1 (P05030 whole entry): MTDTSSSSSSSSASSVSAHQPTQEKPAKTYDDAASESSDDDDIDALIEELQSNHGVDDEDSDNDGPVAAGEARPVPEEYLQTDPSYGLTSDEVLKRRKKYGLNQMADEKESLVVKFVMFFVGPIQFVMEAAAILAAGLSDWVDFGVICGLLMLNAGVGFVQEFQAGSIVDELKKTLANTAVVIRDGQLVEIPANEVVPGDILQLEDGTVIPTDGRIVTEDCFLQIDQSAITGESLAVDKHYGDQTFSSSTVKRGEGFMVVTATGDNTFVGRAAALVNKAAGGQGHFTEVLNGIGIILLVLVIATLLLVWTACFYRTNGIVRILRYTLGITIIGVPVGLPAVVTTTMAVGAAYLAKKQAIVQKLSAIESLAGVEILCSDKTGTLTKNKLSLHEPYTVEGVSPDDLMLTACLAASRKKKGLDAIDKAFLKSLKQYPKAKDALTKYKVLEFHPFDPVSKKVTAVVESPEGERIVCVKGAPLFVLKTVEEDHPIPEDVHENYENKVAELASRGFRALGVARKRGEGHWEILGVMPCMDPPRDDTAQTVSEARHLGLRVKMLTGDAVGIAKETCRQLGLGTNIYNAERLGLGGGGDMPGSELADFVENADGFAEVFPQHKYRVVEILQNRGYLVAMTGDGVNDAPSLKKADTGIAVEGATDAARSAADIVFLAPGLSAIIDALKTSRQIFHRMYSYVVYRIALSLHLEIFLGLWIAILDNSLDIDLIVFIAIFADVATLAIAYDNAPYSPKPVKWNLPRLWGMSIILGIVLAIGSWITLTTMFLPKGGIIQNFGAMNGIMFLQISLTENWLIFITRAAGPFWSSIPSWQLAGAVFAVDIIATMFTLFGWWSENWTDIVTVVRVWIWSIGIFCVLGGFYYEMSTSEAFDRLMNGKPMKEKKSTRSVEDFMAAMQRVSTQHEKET

N=C(N)NCCC[C@@H](N)C(=O)N[C@H](CCCNC(=N)N)C(=O)N[C@H](CCCNC(=N)N)C(=O)N[C@H](Cc1ccccc1)C(=O)N[C@H](Cc1c[nH]c2ccccc12)C(=O)N[C@H](Cc1c[nH]c2ccccc12)C(=O)N[C@H](Cc1ccccc1)C(=O)N[C@H](CCCNC(=N)N)C(=O)N[C@H](CCCNC(=N)N)C(=O)N[C@H](CCCNC(=N)N)C(N)=O [BM2, reference compound] (HELM PEPTIDE1{[dR].[dR].[dR].[dF].[dW].[dW].[dF].[dR].[dR].[dR].[am]}$$$$V2.0)
pIC50 (S. cerevisiae Pma1): 6.30

CCCCc1nc2sc3c(NCCCN(C)C)ncnc3c2c2c1CCCC2 [Compound 14]
Cells DiBAC4(3) positive and PI negative (S. cerevisiae cells; [1]): 44% | Cells PI positive but DiBAC4(3) negative (S. cerevisiae cells; [1]): 0.7% | Cells both PI and DiBAC4(3) negative (S. cerevisiae cells; [1]): 16% | Cells both PI and DiBAC4(3) positive (S. cerevisiae cells; [1]): 39% | PI signal (membrane integrity), in words (S. cerevisiae cells): minimal increase | DiBAC4(3) signal (membrane depolarization), in words (S. cerevisiae cells): elevated

CCc1nc2sc3c(NCCCN(C)C)ncnc3c2c2c1CCCC2 [Compound 17]
PI signal (membrane integrity), in words (S. cerevisiae cells): not significantly increased | DiBAC4(3) signal (membrane depolarization), in words (S. cerevisiae cells): did not increase

O=c1c2ccccc2[se]n1-c1ccccc1 [Ebselen, reference compound]
pIC50 (C. albicans): 4.85
